Values after ≈ are worked out from the molar mass of the structure shown.
Legend:
Type in all cases: in vivo
rice stem borer larvae = assay: micro dropping (topical) test on hibernating rice stem borer larvae (Experimental Example 3); settings: topical in acetone, head and tail of larvae, 3 days
Text: The present compounds (1), (4), (8), (10), (14), (15), (22), (32), (36), (38), (41), (44), (48), (50), (51), (52), (53), (61), (66), (68), (72), (73), (80), (81), (90) and (93) and chrysanthemic acid esters corresponding thereto were individually dissolved in acetone to prepare insecticides of various concentrations. Using a micro dropping means, each of the insecticides was dropped to the head and tail of hibernating rice stem borer larvae.

house flies = assay: Campbell's turn table oil spray test on house fly adults (Experimental Example 1); settings: Musca domestica, 24 h, oil spray 5 ml, 10 min exposure, mortality after 1 day, read-out: LC50 (50 percent lethal concentration)
Description: The present compounds (1), (4), (8), (10), (14), (15), (20), (22), (32), (36), (38), (41), (44), (48), (50), (51), (52), (53), (61), (66), (68), (72), (73), (78), (80), (81), (90), (93) and (96), and chrysanthemic acid esters and pyrethric acid esters corresponding thereto were individually formulated by use of deodorized kerosene into oil sprays of various test concentrations.
Using the Campbell's turn table [disclosed in "Soap & Sanitary Chemicals," Vol. 14, No. 6, page 119 (1938)], 5 ml. of each of the oil sprays was sprayed. When 20 seconds had elapsed after the spraying, the shutter was opened, and adults of house flies (a group of about 100 flies) were exposed to the settling mist for 10 minutes and then transferred to an observation cage.
The above operation was repeated several times to measure the LC50 (50 percent lethal concentration) of each compound.

[1] = tested on: Northern house mosquitoes; assay: knock-down test of oil sprays on Northern house mosquito adults in (70 cm)^3 glass chamber (Experimental Example 2)
Description: The present compounds (1), (6), (20), (22), (23), (25), (27), (29), (30), (31), (39), (42), (43), (45), (49), (53), (56), (62), (64), (78), (81), (83), (85), (87), (88) and (89), and chrysanthemic acid esters and pyrethric acid esters corresponding thereto were individually formulated by use of deodorized kerosene into oil sprays of various test concentrations.
About 20 adults of Northern house mosquitoes were liberated in a (70 cm)^3 glass chamber, and 0.7 ml. of each of the oil sprays was sprayed into the chamber under a pressure of 1.5 kg/cm^2 by use of a glass atomizer. Subsequently, the number of knocked-down mosquitoes was counted to calculate the KT50 (50 percent knock down time) of each compound.

[2] = concentration of oil spray 0.2%
[3] = concentration of oil spray 0.1%

| Compound | LD50 (50 percent lethal dose) (rice stem borer larvae) | LC50 (house flies) | KT50 (50 percent knock down time) [1, 2] | KT50 (50 percent knock down time) [1, 3] |
| --- | --- | --- | --- | --- |
| C=CC=CC1C(C(=O)OC2CC(=O)C(CC=C)=C2C)C1(C)C (centres unmarked) [Present compound (81), 2-Allyl-3-methyl-2-cyclopentene-1-one-4-yl 2',2'-dimethyl-3'-(1",3"-butadienyl)-cyclopropanecarboxylate] | 1.7 γ/larva | 590 µg/mL (≈ 1960 µM) | 141 s | – |
| C=CCC1=C(C)C(OC(=O)C2C(C=C(C)C)C2(C)C)CC1=O (centres unmarked) [Allethrin, reference compound] | 2.6 γ/larva | 1180 µg/mL (≈ 3900 µM) | 197 s | 292 s |
| C=CC(C)=CC1C(C(=O)OC(C#N)c2cccc(Oc3ccccc3)c2)C1(C)C (stereo not drawn) [Present compound (22), 3-Phenoxy-α-cyanobenzyl 2',2'-dimethyl-3'-(2"-methyl-1",3"-butadienyl)-cyclopropanecarboxylate] | 0.006 γ/larva | 40 µg/mL (≈ 103 µM) | – | 168 s |
| CC(C)=CC1C(C(=O)OC(C#N)c2cccc(Oc3ccccc3)c2)C1(C)C (stereo not drawn) [3-Phenoxy-α-cyanobenzyl chrysanthemate, reference compound] | 0.01 γ/larva | 60 µg/mL (≈ 160 µM) | – | 230 s |
| C=CC=CC1C(C(=O)OCc2ccc(Oc3ccccc3)o2)C1(C)C (centres unmarked) [Present compound (72), 5-Phenoxyfurfuryl 2',2'-dimethyl-3'-(1",3"-butadienyl)-cyclopropanecarboxylate] | 0.034 γ/larva | 41 µg/mL (≈ 121 µM) | – | – |
| CC(C)=CC1C(C(=O)OCc2coc(Cc3ccccc3)c2)C1(C)C (centres unmarked) [5-Benzyl-3-furylmethyl chrysanthemate, 5-benzyl-3-furylmethyl chrysanthemate, reference compound] | 0.20 γ/larva | 100 µg/mL (≈ 295 µM) | 205 s | – |
| CC(C)=CC1C(C(=O)OCc2cccc(Cc3ccccc3)c2)C1(C)C (centres unmarked) [3-Benzylbenzyl chrysanthemate, reference compound] | 1.20 γ/larva | 270 µg/mL (≈ 775 µM) | – | – |
| C=CC(C)=CC1C(C(=O)OCc2coc(Cc3ccccc3)c2)C1(C)C (centres unmarked) [Present compound (1), 5-Benzyl-3-furylmethyl 2',2'-dimethyl-3'-(2"-methyl-1", 3"-butadienyl)-cyclopropanecarboxylate] | 0.068 γ/larva | 53 µg/mL (≈ 151 µM) | 131 s | – |
| C=C(C)C=CC1C(C(=O)OCc2coc(Cc3ccccc3)c2)C1(C)C (centres unmarked) [Present compound (53), 5-Benzyl-3-furylmethyl 2',2'-dimethyl-3'-(3"-methyl-1",3"-butadienyl)-cyclopropanecarboxylate] | 0.170 γ/larva | 71 µg/mL (≈ 203 µM) | 124 s | – |
